Article PMC2703642, “PpoR is a conserved unpaired LuxR solo of Pseudomonas putida which binds N-acyl homoserine lactones” (BMC Microbiology, 2009)

target: T1, PpoR (Pseudomonas putida, UniProt Q88E21); assay: AHL retention in washed E. coli cells expressing PpoR, ethyl acetate extraction, TLC with A. tumefaciens NTL4 (pZLR4) overlay; format: cell-based; conditions: 1 uM AHL in LB, 30 C, IPTG induction 3.5 h; pQE30 vector-only control
T1 construct: gene PP_4647; full-length, 235 aa [sic] (705 bp ORF); 721-bp fragment with entire ppoR cloned SphI-HindIII in pQE30 (pQEPpoR); expressed in E. coli M15(pRep4); not purified
T1 sequence (Q88E21 entry or part of it): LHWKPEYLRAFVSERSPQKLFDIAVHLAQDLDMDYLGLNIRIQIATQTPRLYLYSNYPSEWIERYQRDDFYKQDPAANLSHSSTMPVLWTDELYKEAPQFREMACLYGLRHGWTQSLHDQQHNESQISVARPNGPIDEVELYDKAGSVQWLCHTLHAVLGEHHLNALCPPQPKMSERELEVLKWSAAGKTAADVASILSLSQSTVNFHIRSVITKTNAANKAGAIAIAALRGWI

SMILES | AHL retention in washed E. coli cells expressing PpoR, ethyl acetate extraction,
CCCC(=O)CC(=O)N[C@H]1CCOC1=O [3-oxo-C6-HSL] | Purification of AHLs from E. coli over-expressing PpoR resulted in detection of 3-oxo-C6-HSL
CCCCCC(=O)CC(=O)N[C@H]1CCOC1=O [3-oxo-C8-HSL] | PpoR also exhibited probable binding to 3-oxo-C8-HSL and 3-oxo-C10-HSL, but to a lower extent
CCCCCCCC(=O)CC(=O)N[C@H]1CCOC1=O [3-oxo-C10-HSL] | PpoR also exhibited probable binding to 3-oxo-C8-HSL and 3-oxo-C10-HSL, but to a lower extent
